Where two headings read alike, the source gives them in different places.
What was measured:
STAT6 = target: T1, STAT6 (Homo sapiens, UniProt P42226); test: STAT6 Reporter Luciferase Assay (IL-13 stimulated HaCaT keratinocyte NanoLuc reporter cells); format: cell-based; settings: read-out: Reporter EC50
T1 construct: stably transfected HaCaT keratinocyte cell line, which expresses NanoLuc luciferase reporter gene under the transcriptional control of the STAT6 responsive promoter; endogenous in cells; host or cells: HaCaT keratinocyte reporter cell line (stably transfected with a NanoLuc reporter)
T1 sequence (P42226 1-847): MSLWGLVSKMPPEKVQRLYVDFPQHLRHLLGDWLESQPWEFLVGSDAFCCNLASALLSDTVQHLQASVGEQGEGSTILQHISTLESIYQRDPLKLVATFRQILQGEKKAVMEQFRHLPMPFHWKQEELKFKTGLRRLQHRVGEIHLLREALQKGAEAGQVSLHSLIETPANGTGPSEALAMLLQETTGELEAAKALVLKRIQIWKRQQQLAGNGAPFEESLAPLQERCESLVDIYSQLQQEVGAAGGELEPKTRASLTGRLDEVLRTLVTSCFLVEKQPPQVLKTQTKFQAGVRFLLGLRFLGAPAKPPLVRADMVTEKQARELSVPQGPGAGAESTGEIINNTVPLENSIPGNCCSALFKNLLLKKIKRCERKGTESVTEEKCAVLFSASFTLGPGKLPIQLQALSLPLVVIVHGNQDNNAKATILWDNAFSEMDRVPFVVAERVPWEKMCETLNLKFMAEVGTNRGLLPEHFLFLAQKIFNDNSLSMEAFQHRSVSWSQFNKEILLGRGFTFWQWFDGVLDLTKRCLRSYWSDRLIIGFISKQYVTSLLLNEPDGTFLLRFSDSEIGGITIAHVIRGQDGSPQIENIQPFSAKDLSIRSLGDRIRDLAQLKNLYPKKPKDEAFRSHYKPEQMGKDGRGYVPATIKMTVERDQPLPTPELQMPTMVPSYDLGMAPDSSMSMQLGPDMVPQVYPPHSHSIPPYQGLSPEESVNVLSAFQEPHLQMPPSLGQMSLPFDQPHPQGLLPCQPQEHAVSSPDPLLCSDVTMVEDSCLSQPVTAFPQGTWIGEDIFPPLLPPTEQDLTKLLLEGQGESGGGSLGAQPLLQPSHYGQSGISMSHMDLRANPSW
Outline: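 Cells were plated overnight, washed, exposed to compound for two hours, stimulated with IL-13 (0.12 nM final) for four hours at 37 °C, and then lysed with Nano-Glo substrate for 15 min before luminescence reading.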

[1] = test system: CCL17 secretion in peripheral human whole blood; test: Human Whole Blood (HWB) CCL17 TR-FRET Assay (IL-13 stimulated CCL17 secretion); format: cell-based
Outline: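 IC50 values reflect inhibition of IL-13-driven CCL17 release in human whole blood. Blood was preincubated with compound 2 h, stimulated 48 h at 37 °C with IL-13 (10 ng/mL final), and serum CCL17 was measured by TR-FRET.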

[2] = STAT6 NanoLuc luciferase reporter, IL-13 stimulated HaCaT keratinocyte cells
[3] = Homo sapiens, 48 h, inhibition of CCL17 secretion in human whole blood, 10 ng/mL IL13, 48 hours
[4] = IL-13 stimulated HaCaT STAT6 NanoLuc reporter cells
[5] = human whole blood, IL-13 stimulated, 48 hours
[6] = Homo sapiens, 48 h, human whole blood, 10 ng/mL IL13, 48 hours
[7] = Homo sapiens, 48 h, human whole blood, IL-13 stimulated

Row | Structure (SMILES) | EC50 (STAT6; [2]) | IC50 [1, 3] | EC50 (STAT6; [4]) | other results
1 | CC(C)n1nc(C(=O)NCc2ccc(NC(=O)NCC3COC3)cc2)c2c1CCN(c1ccc(C(=O)N(C)C)cn1)C2 [Example 181, 5-(5-(dimethylcarbamoyl)pyridin-2-yl)-1-isopropyl-N-(4-(3-(oxetan-3-ylmethyl)ureido)benzyl)-4,5,6,7-tetrahydro-1H-pyrazolo[4,3-c]pyridine-3-carboxamide] | 260 nM | 436 nM |  | 
2 | CC(C)C1CN(c2ccc(C(=O)N(C)C)cn2)Cc2c(C(=O)NCc3ccc(NC(=O)N(C)C)cc3)nn(C)c21 (single isomer, unassigned) [Example 272, rel-(R or S)-5-(5-(dimethylcarbamoyl)pyridin-2-yl)-N-(4-(3,3-dimethylureido)benzyl)-7-isopropyl-1-methyl-4,5,6,7-tetrahydro-1H-pyrazolo[4,3-c]pyridine-3-carboxamide] |  |  | 4 nM | IC50 [1, 5]: 30 nM
3 | CCn1nc(C(=O)NCc2ccc(NC(=O)N(C)C)cc2)c2c1C(C)CN(c1ncc(C(=O)N(C)C)cn1)C2 (racemic) [Example 531, rac-(R)-5-(5-(dimethylcarbamoyl)pyrimidin-2-yl)-N-(4-(3,3-dimethylureido)benzyl)-1-ethyl-7-methyl-4,5,6,7-tetrahydro-1H-pyrazolo[4,3-c]pyridine-3-carboxamide] |  |  | 1 nM | IC50 [1, 6]: 14 nM
4 | CC(=O)Nc1ccc(CNC(=O)c2nn(C(C)C)c3c2CN(c2ccc(C(=O)N(C)C)cn2)CC3)cc1 [Example 147, N-(4-acetamidobenzyl)-5-(5-(dimethylcarbamoyl)pyridin-2-yl)-1-isopropyl-4,5,6,7-tetrahydro-1H-pyrazolo[4,3-c]pyridine-3-carboxamide] | 26 nM | 252 nM |  | 
5 | CC1CN(c2ccc(C(=O)N(C)C)cn2)Cc2c(C(=O)NCc3ccc(NC(=O)N(C)C)cc3)nn(C)c21 (single isomer, unassigned) [Example 8, rel-(R or S)-5-(5-(Dimethylcarbamoyl)pyridin-2-yl)-N-(4-(3,3-dimethylureido)benzyl)-1,7-dimethyl-4,5,6,7-tetrahydro-1H-pyrazolo[4,3-c]pyridine-3-carboxamide] | 3 nM |  |  | IC50 ([1]; inhibition of CCL17 secretion in human whole blood, 10 ng/mL IL13, 48 hours): 14 nM
6 | CC(C)n1nc(C(=O)NCc2ccc(-c3nnc[nH]3)cc2)c2c1CCN(c1ccc(C(=O)N(C)C)cn1)C2 [Example 40, N-(4-(4H-1,2,4-triazol-3-yl)benzyl)-5-(5-(dimethylcarbamoyl)pyridin-2-yl)-1-isopropyl-4,5,6,7-tetrahydro-1H-pyrazolo[4,3-c]pyridine-3-carboxamide] | 38 nM | 324 nM |  | 
7 | CCC1CN(c2ccc(C(=O)N(C)C)cn2)Cc2c(C(=O)NCc3ccc(NC(=O)N(C)C)cc3)nn(CC)c21 (racemic) [Example 115, rac-(R)-5-(5-(dimethylcarbamoyl)pyridin-2-yl)-N-(4-(3,3-dimethylureido)benzyl)-1,7-diethyl-4,5,6,7-tetrahydro-1H-pyrazolo[4,3-c]pyridine-3-carboxamide] | 2 nM | 12 nM |  | 
8 | CC(C)n1nc(C(=O)NCc2ccc(NC(=O)N(C)C)cc2)c2c1C(C(F)(F)F)CN(c1ccc(C(=O)N(C)C)cn1)C2 (single isomer, unassigned) [Example 548, rel-(R or S)-5-(5-(Dimethylcarbamoyl)pyridin-2-yl)-N-(4-(3,3-dimethylureido)benzyl)-1-isopropyl-7-(trifluoromethyl)-4,5,6,7-tetrahydro-1H-pyrazolo[4,3-c]pyridine-3-carboxamide] |  |  | 15 nM | IC50 ([1]; human whole blood, 10 ng/mL IL13, 48 hours): 199 nM
9 | CC(C)n1nc(C(=O)NCc2ccc(NC(=O)N(C)C)cc2)c2c1[C@@H](C)CN(c1ccc(C(=O)N(C)CC3CCNCC3)cc1)C2 [Example 637, (S)-N-(4-(3,3-dimethylureido)benzyl)-1-isopropyl-7-methyl-5-(4-(methyl(piperidin-4-ylmethyl)carbamoyl)phenyl)-4,5,6,7-tetrahydro-1H-pyrazolo[4,3-c]pyridine-3-carboxamide] |  |  | 13 nM | IC50 [1, 6]: 48 nM
10 | CC(C)n1nc(C(=O)NCc2ccc(NC(=O)N3CCC(OCCO)CC3)cc2)c2c1CCN(c1ccc(C(=O)N(C)C)cn1)C2 [Example 162, 5-(5-(dimethylcarbamoyl)pyridin-2-yl)-N-(4-(4-(2-hydroxyethoxy)piperidine-1-carboxamido)benzyl)-1-isopropyl-4,5,6,7-tetrahydro-1H-pyrazolo[4,3-c]pyridine-3-carboxamide] | 11 nM | 66 nM |  | 
11 | CCn1nc(C(=O)NCc2ccc(NC(=O)N(C)C)cc2)c2c1CCN(c1ccc(-c3ncnn3C)cn1)C2 [Example 23, N-(4-(3,3-Dimethylureido)benzyl)-1-ethyl-5-(5-(1-methyl-1H-1,2,4-triazol-5-yl)pyridin-2-yl)-4,5,6,7-tetrahydro-1H-pyrazolo[4,3-c]pyridine-3-carboxamide] | 6 nM | 62 nM |  | 
12 | CC(C1CCC1)n1nc(C(=O)NCc2ccc(NC(=O)N(C)C)cc2)c2c1CCN(c1ccc(C(=O)N(C)C)cn1)C2 (stereo not shown) [Example 263, 1-(1-cyclobutylethyl)-5-(5-(dimethylcarbamoyl)pyridin-2-yl)-N-(4-(3,3-dimethylureido)benzyl)-4,5,6,7-tetrahydro-1H-pyrazolo[4,3-c]pyridine-3-carboxamide] |  |  | 9 nM | IC50 [1, 7]: 130 nM
13 | CC(C)n1nc(C(=O)NCc2ccc(NC(=O)N3CCC(N(C)C)CC3)cc2)c2c1[C@@H](C)CN(c1ccc(C(=O)N(C)C)cn1)C2 [Example 616, (S)-N-(4-(4-(dimethylamino)piperidine-1-carboxamido)benzyl)-5-(5-(dimethylcarbamoyl)pyridin-2-yl)-1-isopropyl-7-methyl-4,5,6,7-tetrahydro-1H-pyrazolo[4,3-c]pyridine-3-carboxamide] |  |  | 1 nM | IC50 [1, 6]: 6 nM
14 | CCC1Cc2c(c(C(=O)NCc3ccc(NC(=O)N(C)C)cc3)nn2C(C)C)CN1c1ccc(C(=O)N(C)C)cn1 (single isomer, unassigned) [Example 268, rel-(R or S)-5-(5-(dimethylcarbamoyl)pyridin-2-yl)-N-(4-(3,3-dimethylureido)benzyl)-6-ethyl-1-isopropyl-4,5,6,7-tetrahydro-1H-pyrazolo[4,3-c]pyridine-3-carboxamide] |  |  | 3 nM | IC50 [1, 5]: 21 nM
15 | CNC(=O)c1ccc(CNC(=O)c2nn(C(C)C)c3c2CN(c2ccc(C(=O)N(C)C)cn2)CC3C(F)(F)F)cc1 (single isomer, unassigned) [Example 357, rel-(R or S)-5-(5-(dimethylcarbamoyl)pyridin-2-yl)-1-isopropyl-N-(4-(methylcarbamoyl)benzyl)-7-(trifluoromethyl)-4,5,6,7-tetrahydro-1H-pyrazolo[4,3-c]pyridine-3-carboxamide] |  |  | 1 nM | IC50 [1, 5]: 20 nM
16 | CC(C)n1nc(C(=O)NCc2ccc(NC(=O)N(C)C)cc2)c2c1[C@@H](C)CN(c1ccc(C(=O)N(C)C)cn1)[C@@H]2C (single isomer, unassigned) [Example 529] |  |  | 0.1 nM | IC50 [1, 6]: 4 nM
17 | CC(C)n1nc(C(=O)NCc2ccc(NC(=O)N(C)C)cc2)c2c1CCN(c1ccc(C3COC3)cn1)C2 [Example 338, N-(4-(3,3-Dimethylureido)benzyl)-1-isopropyl-5-(5-(oxetan-3-yl)pyridin-2-yl)-4,5,6,7-tetrahydro-1H-pyrazolo[4,3-c]pyridine-3-carboxamide] |  |  | 3110 nM | IC50 [1, 7]: > 30000 nM

From patent publication US20250320213A1, “Nitrogen-Containing Heterocyclic Compounds” (Pfizer Inc., priority 2024, published 2025)
